From the kinase profiling compilation of Christmann-Franck et al. (2016)
Values belong to the compound of their own block, whether it stands above or below them.

Key:
Test in all cases: radiometric filter-binding kinase assay, Kinase HotSpot
Details in all cases: compound 0.5 µM; ATP 10 µM
ROCK2 (human) = ROCK2 (human) (UniProt O75116)
[1] = target: TYK2 JH1 catalytic (human) (UniProt P29597)
EGFR (human) = EGFR (human) (UniProt P00533)
CSNK1E (human) = CSNK1E (human) (UniProt P49674)
TNK2 (human) = TNK2 (human) (UniProt Q07912)
CAMK1D (human) = CAMK1D (human) (UniProt Q8IU85)
PIM1 (human) = PIM1 (human) (UniProt P11309)
NEK11 (human) = NEK11 (human) (UniProt Q8NG66)
MAP3K5 (human) = MAP3K5 (human) (UniProt Q99683)
KIT (human) = KIT (human) (UniProt P10721)
SLK (human) = SLK (human) (UniProt Q9H2G2)
LRRK2 (human) = LRRK2 (human) (UniProt Q5S007)
LRRK2 (human), sequence (Q5S007 whole entry, looked up): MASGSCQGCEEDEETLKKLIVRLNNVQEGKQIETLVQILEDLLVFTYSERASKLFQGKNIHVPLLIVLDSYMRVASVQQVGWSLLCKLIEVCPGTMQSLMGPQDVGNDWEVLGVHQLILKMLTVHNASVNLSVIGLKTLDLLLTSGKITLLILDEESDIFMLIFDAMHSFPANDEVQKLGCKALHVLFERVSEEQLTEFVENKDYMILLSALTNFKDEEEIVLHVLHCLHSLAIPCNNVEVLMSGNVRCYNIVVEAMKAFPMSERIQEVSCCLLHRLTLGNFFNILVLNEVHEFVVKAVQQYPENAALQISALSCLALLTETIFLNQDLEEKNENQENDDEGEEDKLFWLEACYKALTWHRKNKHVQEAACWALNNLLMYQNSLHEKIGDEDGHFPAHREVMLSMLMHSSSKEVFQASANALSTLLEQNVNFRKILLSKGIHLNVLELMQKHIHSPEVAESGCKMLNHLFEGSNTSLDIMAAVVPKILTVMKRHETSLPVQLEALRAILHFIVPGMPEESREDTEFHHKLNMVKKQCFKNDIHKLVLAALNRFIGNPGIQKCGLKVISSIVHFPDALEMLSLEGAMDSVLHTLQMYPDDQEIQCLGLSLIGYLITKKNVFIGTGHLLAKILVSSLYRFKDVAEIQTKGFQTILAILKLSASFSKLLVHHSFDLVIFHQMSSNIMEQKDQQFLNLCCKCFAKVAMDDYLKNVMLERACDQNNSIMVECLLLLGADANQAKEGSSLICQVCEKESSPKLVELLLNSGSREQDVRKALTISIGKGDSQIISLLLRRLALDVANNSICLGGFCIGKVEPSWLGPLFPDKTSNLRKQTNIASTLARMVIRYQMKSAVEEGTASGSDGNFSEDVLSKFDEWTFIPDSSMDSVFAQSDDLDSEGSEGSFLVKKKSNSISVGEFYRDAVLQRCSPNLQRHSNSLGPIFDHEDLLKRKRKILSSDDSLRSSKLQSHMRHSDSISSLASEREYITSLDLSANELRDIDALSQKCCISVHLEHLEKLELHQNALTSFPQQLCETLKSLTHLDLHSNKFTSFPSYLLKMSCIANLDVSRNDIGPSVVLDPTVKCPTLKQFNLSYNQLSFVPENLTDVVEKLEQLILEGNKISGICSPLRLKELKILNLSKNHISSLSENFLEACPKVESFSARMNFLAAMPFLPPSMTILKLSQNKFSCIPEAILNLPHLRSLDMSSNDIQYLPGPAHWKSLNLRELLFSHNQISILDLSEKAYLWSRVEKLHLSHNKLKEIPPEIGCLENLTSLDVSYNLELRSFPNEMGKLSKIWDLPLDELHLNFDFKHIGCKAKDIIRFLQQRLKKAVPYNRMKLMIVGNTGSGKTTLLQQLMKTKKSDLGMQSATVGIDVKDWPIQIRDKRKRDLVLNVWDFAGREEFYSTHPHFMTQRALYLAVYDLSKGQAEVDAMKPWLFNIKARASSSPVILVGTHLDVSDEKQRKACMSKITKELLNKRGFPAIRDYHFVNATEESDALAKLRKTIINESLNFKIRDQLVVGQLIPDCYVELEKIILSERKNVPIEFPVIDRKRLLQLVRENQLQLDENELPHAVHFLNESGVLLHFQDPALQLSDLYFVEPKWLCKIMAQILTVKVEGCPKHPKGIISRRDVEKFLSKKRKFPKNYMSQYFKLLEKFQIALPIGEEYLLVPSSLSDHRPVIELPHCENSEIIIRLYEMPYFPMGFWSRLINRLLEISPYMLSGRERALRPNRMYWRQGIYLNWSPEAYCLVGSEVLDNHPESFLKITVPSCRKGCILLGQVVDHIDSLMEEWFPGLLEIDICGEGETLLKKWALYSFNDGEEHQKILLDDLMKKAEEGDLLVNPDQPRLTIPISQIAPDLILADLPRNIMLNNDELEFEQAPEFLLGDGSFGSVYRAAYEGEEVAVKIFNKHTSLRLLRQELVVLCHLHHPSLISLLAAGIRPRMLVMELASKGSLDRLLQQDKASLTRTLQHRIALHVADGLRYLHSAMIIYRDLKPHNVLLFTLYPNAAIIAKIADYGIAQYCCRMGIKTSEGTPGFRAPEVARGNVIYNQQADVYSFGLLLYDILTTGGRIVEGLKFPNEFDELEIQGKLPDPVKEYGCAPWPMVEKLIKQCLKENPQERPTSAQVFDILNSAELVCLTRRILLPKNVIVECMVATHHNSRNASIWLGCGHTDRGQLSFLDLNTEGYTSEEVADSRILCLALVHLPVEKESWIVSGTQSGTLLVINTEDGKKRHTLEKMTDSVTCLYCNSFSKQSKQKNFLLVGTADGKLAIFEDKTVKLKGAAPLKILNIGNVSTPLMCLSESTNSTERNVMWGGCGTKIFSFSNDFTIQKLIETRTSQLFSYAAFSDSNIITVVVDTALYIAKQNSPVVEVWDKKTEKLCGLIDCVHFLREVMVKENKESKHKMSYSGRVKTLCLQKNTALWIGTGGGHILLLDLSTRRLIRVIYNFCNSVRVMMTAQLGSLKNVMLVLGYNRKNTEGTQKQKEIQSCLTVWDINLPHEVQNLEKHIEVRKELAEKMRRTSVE

ALK (human) = ALK (human) (UniProt Q9UM73)
FER (human) = FER (human) (UniProt P16591)
FER (human), sequence (P16591 whole entry, looked up): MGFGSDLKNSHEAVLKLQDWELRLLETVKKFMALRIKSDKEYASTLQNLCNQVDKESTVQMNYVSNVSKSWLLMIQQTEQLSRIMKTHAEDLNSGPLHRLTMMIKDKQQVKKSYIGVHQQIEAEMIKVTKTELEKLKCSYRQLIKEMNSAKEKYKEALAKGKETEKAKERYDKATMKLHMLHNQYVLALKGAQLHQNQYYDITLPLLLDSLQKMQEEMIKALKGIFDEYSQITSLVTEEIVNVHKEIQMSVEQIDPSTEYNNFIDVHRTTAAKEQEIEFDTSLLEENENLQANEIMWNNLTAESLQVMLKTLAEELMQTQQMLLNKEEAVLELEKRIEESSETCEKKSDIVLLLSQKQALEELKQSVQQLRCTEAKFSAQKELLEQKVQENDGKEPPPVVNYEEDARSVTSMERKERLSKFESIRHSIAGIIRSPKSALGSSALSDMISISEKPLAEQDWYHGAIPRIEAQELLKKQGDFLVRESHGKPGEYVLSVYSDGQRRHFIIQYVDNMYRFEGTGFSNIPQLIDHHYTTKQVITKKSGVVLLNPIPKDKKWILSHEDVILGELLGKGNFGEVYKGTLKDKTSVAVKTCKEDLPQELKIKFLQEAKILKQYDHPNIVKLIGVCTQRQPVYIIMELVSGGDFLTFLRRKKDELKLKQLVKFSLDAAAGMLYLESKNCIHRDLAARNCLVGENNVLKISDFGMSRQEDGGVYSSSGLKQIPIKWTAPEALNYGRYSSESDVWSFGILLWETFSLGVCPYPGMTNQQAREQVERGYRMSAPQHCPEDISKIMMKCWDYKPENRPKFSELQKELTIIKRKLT

PLK1 (human) = PLK1 (human) (UniProt P53350)
PDPK1 (human) = PDPK1 (human) (UniProt O15530)
PAK2 (human) = PAK2 (human) (UniProt Q13177)
TGFBR2 (human) = TGFBR2 (human) (UniProt P37173)
FGFR4 (human) = FGFR4 (human) (UniProt P22455)
AURKC (human) = AURKC (human) (UniProt Q9UQB9)
CSNK1A1 (human) = CSNK1A1 (human) (UniProt P48729)
ACVRL1 (human) = ACVRL1 (human) (UniProt P37023)
ACVRL1 (human), sequence (P37023 whole entry, looked up): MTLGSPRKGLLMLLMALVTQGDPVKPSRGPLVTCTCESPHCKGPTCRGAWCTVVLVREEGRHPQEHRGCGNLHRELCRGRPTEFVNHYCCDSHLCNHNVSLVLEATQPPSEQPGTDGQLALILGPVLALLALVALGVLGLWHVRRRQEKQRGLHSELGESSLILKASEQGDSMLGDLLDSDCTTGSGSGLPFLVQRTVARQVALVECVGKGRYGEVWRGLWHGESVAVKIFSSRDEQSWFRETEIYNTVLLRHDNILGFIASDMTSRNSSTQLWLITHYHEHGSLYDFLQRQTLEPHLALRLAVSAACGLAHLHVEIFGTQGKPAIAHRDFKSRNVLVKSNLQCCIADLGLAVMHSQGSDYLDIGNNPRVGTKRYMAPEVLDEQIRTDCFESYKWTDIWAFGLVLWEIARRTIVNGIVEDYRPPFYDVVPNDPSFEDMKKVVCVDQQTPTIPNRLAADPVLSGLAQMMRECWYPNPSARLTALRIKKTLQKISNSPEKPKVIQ

MATK (human) = MATK (human) (UniProt P42679)
MAP3K2 (human) = MAP3K2 (human) (UniProt Q9Y2U5)
WNK2 (human) = WNK2 (human) (UniProt Q9Y3S1)
NLK (human) = NLK (human) (UniProt Q9UBE8)
NTRK2 (human) = NTRK2 (human) (UniProt Q16620)
DAPK2 (human) = DAPK2 (human) (UniProt Q9UIK4)
EPHA1 (human) = EPHA1 (human) (UniProt P21709)
ROS1 (human) = ROS1 (human) (UniProt P08922)
SRPK2 (human) = SRPK2 (human) (UniProt P78362)
ZAP70 (human) = ZAP70 (human) (UniProt P43403)
FES (human) = FES (human) (UniProt P07332)
RET (human) = RET (human) (UniProt P07949)
ACVR1B (human) = ACVR1B (human) (UniProt P36896)
CDC42BPB (human) = CDC42BPB (human) (UniProt Q9Y5S2)
MERTK (human) = MERTK (human) (UniProt Q12866)
HIPK4 (human) = HIPK4 (human) (UniProt Q8NE63)
RPS6KB2 (human) = RPS6KB2 (human) (UniProt Q9UBS0)
RAF1 (human) = RAF1 (human) (UniProt P04049)
MAP3K10 (human) = MAP3K10 (human) (UniProt Q02779)
MET (human) = MET (human) (UniProt P08581)

EGFR (human), sequence (P00533 whole entry, looked up): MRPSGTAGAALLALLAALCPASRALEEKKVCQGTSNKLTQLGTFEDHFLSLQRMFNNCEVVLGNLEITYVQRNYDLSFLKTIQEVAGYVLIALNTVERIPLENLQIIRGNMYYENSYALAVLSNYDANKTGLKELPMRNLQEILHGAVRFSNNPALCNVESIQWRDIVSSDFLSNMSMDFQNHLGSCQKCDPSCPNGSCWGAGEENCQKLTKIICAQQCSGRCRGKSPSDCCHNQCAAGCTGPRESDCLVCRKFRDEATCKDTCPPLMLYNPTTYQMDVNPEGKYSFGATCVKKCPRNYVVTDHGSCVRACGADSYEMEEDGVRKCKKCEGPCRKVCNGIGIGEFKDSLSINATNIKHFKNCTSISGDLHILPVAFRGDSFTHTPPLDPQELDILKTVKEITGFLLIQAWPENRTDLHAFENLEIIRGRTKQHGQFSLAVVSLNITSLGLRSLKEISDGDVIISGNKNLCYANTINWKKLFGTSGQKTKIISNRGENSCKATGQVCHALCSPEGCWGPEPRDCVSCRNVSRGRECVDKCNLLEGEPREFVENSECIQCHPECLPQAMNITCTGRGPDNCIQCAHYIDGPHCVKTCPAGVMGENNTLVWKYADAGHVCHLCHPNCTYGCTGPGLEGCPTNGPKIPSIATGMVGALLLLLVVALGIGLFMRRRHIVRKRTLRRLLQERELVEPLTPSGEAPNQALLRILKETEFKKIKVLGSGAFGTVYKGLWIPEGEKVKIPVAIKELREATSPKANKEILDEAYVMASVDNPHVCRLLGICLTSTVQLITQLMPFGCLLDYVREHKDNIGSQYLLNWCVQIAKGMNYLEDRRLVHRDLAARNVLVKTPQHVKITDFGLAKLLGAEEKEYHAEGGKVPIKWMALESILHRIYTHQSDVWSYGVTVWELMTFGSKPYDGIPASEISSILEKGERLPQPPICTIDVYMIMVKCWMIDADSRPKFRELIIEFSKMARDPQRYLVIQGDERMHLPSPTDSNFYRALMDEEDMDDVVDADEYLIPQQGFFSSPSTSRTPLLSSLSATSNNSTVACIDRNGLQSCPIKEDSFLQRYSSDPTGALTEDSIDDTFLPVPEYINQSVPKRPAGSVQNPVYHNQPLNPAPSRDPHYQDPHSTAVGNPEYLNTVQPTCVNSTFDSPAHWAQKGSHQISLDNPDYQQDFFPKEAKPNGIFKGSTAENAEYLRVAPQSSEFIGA

residual activity (ROCK2 (human)): 98.5%
residual activity [1]: 24.3%
residual activity (EGFR (human)): 97.1%
residual activity (CSNK1E (human)): 46.1%
residual activity (TNK2 (human)): 40.6%
residual activity (CAMK1D (human)): 92.3%
residual activity (PIM1 (human)): 85.2%
residual activity (NEK11 (human)): 98.2%
residual activity (MAP3K5 (human)): 84.3%
residual activity (KIT (human)): 73.2%
residual activity (SLK (human)): 78.7%
residual activity (LRRK2 (human)): 91.6%
residual activity (ALK (human)): 76.5%
residual activity (FER (human)): 67.8%
residual activity (PLK1 (human)): 100%
residual activity (PDPK1 (human)): 93%
residual activity (PAK2 (human)): 96.7%
residual activity (TGFBR2 (human)): 113%
residual activity (FGFR4 (human)): 91.9%
residual activity (AURKC (human)): 56.4%
residual activity (CSNK1A1 (human)): 48.2%
residual activity (ACVRL1 (human)): 108%
residual activity (MATK (human)): 98%
residual activity (MAP3K2 (human)): 94.6%
residual activity (WNK2 (human)): 99.8%
residual activity (NLK (human)): 94.6%
residual activity (NTRK2 (human)): 4.08%
residual activity (DAPK2 (human)): 110%
residual activity (EPHA1 (human)): 99.4%
residual activity (ROS1 (human)): 65.6%
residual activity (SRPK2 (human)): 91.3%
residual activity (ZAP70 (human)): 95.6%
residual activity (FES (human)): 92.4%
residual activity (RET (human)): 8.05%
residual activity (ACVR1B (human)): 102%
residual activity (CDC42BPB (human)): 99.5%
residual activity (MERTK (human)): 82.2%
residual activity (HIPK4 (human)): 102%
residual activity (RPS6KB2 (human)): 107%
residual activity (RAF1 (human)): 99.3%
residual activity (MAP3K10 (human)): 95.2%
residual activity (MET (human)): 110%
SMILES: O=C1Nc2ccccc2/C1=C1\Nc2ccccc2\C1=N/O

residual activity (ROCK2 (human)): 91%
residual activity [1]: 9.42%
residual activity (EGFR (human)): 88.1%
residual activity (CSNK1E (human)): 43.2%
residual activity (TNK2 (human)): 4.93%
residual activity (CAMK1D (human)): 80.3%
residual activity (PIM1 (human)): 59.7%
residual activity (NEK11 (human)): 92.3%
residual activity (MAP3K5 (human)): 91.2%
residual activity (KIT (human)): 44.8%
residual activity (SLK (human)): 59.9%
residual activity (LRRK2 (human)): 81.2%
residual activity (ALK (human)): 38.1%
residual activity (FER (human)): 28.8%
residual activity (PLK1 (human)): 103%
residual activity (PDPK1 (human)): 83.3%
residual activity (PAK2 (human)): 82.1%
residual activity (TGFBR2 (human)): 119%
residual activity (FGFR4 (human)): 65.7%
residual activity (AURKC (human)): 43.2%
residual activity (CSNK1A1 (human)): 84.8%
residual activity (ACVRL1 (human)): 103%
residual activity (MATK (human)): 101%
residual activity (MAP3K2 (human)): 60.6%
residual activity (WNK2 (human)): 85.4%
residual activity (NLK (human)): 101%
residual activity (NTRK2 (human)): 1.62%
residual activity (DAPK2 (human)): 104%
residual activity (EPHA1 (human)): 82.2%
residual activity (ROS1 (human)): 27%
residual activity (SRPK2 (human)): 86.5%
residual activity (ZAP70 (human)): 97.8%
residual activity (FES (human)): 81.7%
residual activity (RET (human)): 1.22%
residual activity (ACVR1B (human)): 110%
residual activity (CDC42BPB (human)): 96.6%
residual activity (MERTK (human)): 49.4%
residual activity (HIPK4 (human)): 108%
residual activity (RPS6KB2 (human)): 106%
residual activity (RAF1 (human)): 100%
residual activity (MAP3K10 (human)): 86.9%
residual activity (MET (human)): 123%
SMILES: O=C1Nc2ccccc2/C1=C1/Nc2ccccc2/C1=N\OCCC(O)CO (stereo not drawn)

SMILES: CC(C)[C@H](CO)Nc1nc(Nc2cc(N)cc(Cl)c2)c2ncn(C(C)C)c2n1
residual activity (ROCK2 (human)): 101%
residual activity [1]: 57.9%
residual activity (EGFR (human)): 93.9%
residual activity (CSNK1E (human)): 82.7%
residual activity (TNK2 (human)): 47.8%
residual activity (CAMK1D (human)): 103%
residual activity (PIM1 (human)): 98%
residual activity (NEK11 (human)): 84.2%
residual activity (MAP3K5 (human)): 95.6%
residual activity (KIT (human)): 86.2%
residual activity (SLK (human)): 39.8%
residual activity (LRRK2 (human)): 101%
residual activity (ALK (human)): 79.6%
residual activity (FER (human)): 54.9%
residual activity (PLK1 (human)): 54.9%
residual activity (PDPK1 (human)): 106%
residual activity (PAK2 (human)): 95.5%
residual activity (TGFBR2 (human)): 93.5%
residual activity (FGFR4 (human)): 93.4%
residual activity (AURKC (human)): 91.9%
residual activity (CSNK1A1 (human)): 75.5%
residual activity (ACVRL1 (human)): 109%
residual activity (MATK (human)): 111%
residual activity (MAP3K2 (human)): 83.1%
residual activity (WNK2 (human)): 112%
residual activity (NLK (human)): 93.9%
residual activity (NTRK2 (human)): 3.04%
residual activity (DAPK2 (human)): 101%
residual activity (EPHA1 (human)): 76.9%
residual activity (ROS1 (human)): 96.5%
residual activity (SRPK2 (human)): 31%
residual activity (ZAP70 (human)): 102%
residual activity (FES (human)): 69.2%
residual activity (RET (human)): 61.6%
residual activity (ACVR1B (human)): 107%
residual activity (CDC42BPB (human)): 98.4%
residual activity (MERTK (human)): 79.7%
residual activity (HIPK4 (human)): 96.4%
residual activity (RPS6KB2 (human)): 98.2%
residual activity (RAF1 (human)): 113%
residual activity (MAP3K10 (human)): 95.1%
residual activity (MET (human)): 109%

SMILES: CN([C@@H](Cc1ccc(OS(=O)(=O)c2cccc3cnccc23)cc1)C(=O)N1CCN(c2ccccc2)CC1)S(=O)(=O)c1cccc2cnccc12
residual activity (ROCK2 (human)): 105%
residual activity [1]: 110%
residual activity (EGFR (human)): 89.4%
residual activity (CSNK1E (human)): 103%
residual activity (TNK2 (human)): 94.8%
residual activity (CAMK1D (human)): 101%
residual activity (PIM1 (human)): 106%
residual activity (NEK11 (human)): 103%
residual activity (MAP3K5 (human)): 99.2%
residual activity (KIT (human)): 96.3%
residual activity (SLK (human)): 101%
residual activity (LRRK2 (human)): 97.1%
residual activity (ALK (human)): 96.5%
residual activity (FER (human)): 100%
residual activity (PLK1 (human)): 96.7%
residual activity (PDPK1 (human)): 96.4%
residual activity (PAK2 (human)): 99.1%
residual activity (TGFBR2 (human)): 101%
residual activity (FGFR4 (human)): 110%
residual activity (AURKC (human)): 98.2%
residual activity (CSNK1A1 (human)): 99%
residual activity (ACVRL1 (human)): 103%
residual activity (MATK (human)): 94.8%
residual activity (MAP3K2 (human)): 98.9%
residual activity (WNK2 (human)): 100%
residual activity (NLK (human)): 106%
residual activity (NTRK2 (human)): 103%
residual activity (DAPK2 (human)): 99.7%
residual activity (EPHA1 (human)): 102%
residual activity (ROS1 (human)): 96.5%
residual activity (SRPK2 (human)): 99.4%
residual activity (ZAP70 (human)): 99.5%
residual activity (FES (human)): 97.7%
residual activity (RET (human)): 105%
residual activity (ACVR1B (human)): 98.7%
residual activity (CDC42BPB (human)): 103%
residual activity (MERTK (human)): 100%
residual activity (HIPK4 (human)): 105%
residual activity (RPS6KB2 (human)): 96.6%
residual activity (RAF1 (human)): 96.9%
residual activity (MAP3K10 (human)): 92.6%
residual activity (MET (human)): 114%
